From US9309314B2, “Polypeptides, nucleic acids and uses thereof” (AGENCY FOR SCIENCE, TECHNOLOGY AND RESEARCH (A*STAR), priority 2013, dated 2016)
“Also recorded” adds a separate entry of the source.

Columns and labels:
[1] = tested on: ELA processing and secretion; experiment: Xenopus secretion assay; type: cell-based; conditions: Xenopus laevis embryos injected with human ELA mRNA; increasing amounts
Experimental: ZFNs were purchased from Sigma-Aldrich. 250 pg of mRNAs encoding the ZFN pair were injected into 1-cell stage embryos. ZFN binding sites within exon 1 are as follows: 5′_[…] 3′ (SEQ ID NO: 133) and 5′_[…]_3′ (SEQ ID NO: 134). Sequencing primers flanking the mutation sites are: forward 5′_[…]_3′ (SEQ ID NO: 135), reverse 5′[…]_3′ (SEQ ID NO: 136). For ela overexpression, 200 pg of SP6-transcribed zebrafish ela capped mRNA (Applied Biosystems) was injected into 1-cell stage zebrafish embryos. Translation blocking MOs used for aplnra and aplnrb have been described previously (Scott et al., 2007; Zeng et al., 2007) and were purchased from Gene tools (Oregon, USA). Embryos were injected at 1-cell stage with a combination of 1 ng of aplnra MO and 0.5 ng of aplnrb MO (Zeng et al., 2007). Information on probes used for q-PCR and WISH can be found in Tables E1 and E2. Zebrafish embryos at 100% epiboly were dechorionated and processed for western blotting as previously described (Link et al., 2006). For the Xenopus secretion assay, 16 ng of SP6-transcribed human ELA capped mRNA (Applied Biosystems) was injected into each cell of 4-cell stage embryos. At stage 8, embryos were dechorionated and dissociated in CMFM medium with 5 mM EDTA. […]

hESCs [2] = experiment: hESC growth assays (cell counts, colony size, xCELLigence real time cell index); type: cell-based, human; conditions: for growth of knockdown hESCs (real-time cell index, xCELLigence): knockdown hESCs versus control hESCs
Experimental: Feeder-free hESCs were cultured in clumps in mTSER1 (Stem Cell Technologies) on Matrigel (BD 354277).
hESCs were dissociated into single cells using Accutase (Stem Cell Technologies) and plated in the presence of 10 μM Y-27632 (ROCK inhibitor) for 12 hours (Watanabe et al., 2007).
For xCELLigence real time growth assays, 4000 cells were plated per well of an E-plate (ACEA Biosciences) with media changes every 48 hours.
(§1) Recombinant ELA was added at 2.5 uM (or 10 μg/ml). Cell cycle studies were performed with Click-iT EDU staining kit (Invitrogen) and by performing a double thymidine block (2.5 mM thymidine; 16 hour block, 8 hour release, 16 hour block) followed by DAPI staining for DNA content at the indicated times following release.

APLNR = APLNR knockdown (qPCR, flow cytometry); conditions: FACs
Experimental: (§2) HES3 human embryonic stem cells were transduced with 2TU of lentiviruses and selected with 2 ug/ml puromycin for 2 weeks on feeder free culture system.
To obtain hESC-derived cells that express APLNR, we adopted a protocol for cardiac differentiation, which was stopped at Day 3 when APLNR expression peaks (Lian et al., 2013). We refer to this intermediary cell type as Day 3-differentiated mesoendoderm. Briefly, Shef4 and HES3 hESCs were dissociated with Accutase, and 0.14 million cells were plated into each well of a Matrigel-coated 24 well plate in the presence of 5 μM Y-27632 in mTSER1. The media was changed daily for 4 days with mTSER1 until the cells became 90% confluent. On Day 0, mTSER1 was then replaced with differentiation media [RPMI 1640, B-27 supplement with no insulin (Invitrogen)] with 9 μM of GSK3β inhibitor CHIR99201 (BioVision) for 24 hours. The cells were further grown for 2 days in RPMI+B27 without insulin until Day 3, when they were used for qPCR, flow cytometry and AP-binding assays.
Cells were resuspended to 2.5 million/ml and stained with 5 μg/ml of a APLNR (mAB856, R&D Systems) in PBS/5% FBS/1 mM EDTA for 30 minutes on ice, followed by wash in buffer, and stain with a mouse-IgG-Alexa Fluo488 (Molecular Probes) for 30 minutes on ice. Flow cytometry was carried out on LSRII (Becton Dickinson) and data analysis was performed with FlowJo (Treestar Inc.).

undifferentiated hESCs = experiment: AP-ELA binding to undifferentiated hESCs after shRNA-mediated depletion of APLNR; conditions: Day 0 undifferentiated hESCs
Experimental: as §2

[3] = tested on: hESC-derived mesendoderm cells; experiment: AP-ELA binding to Day 3 mesoendoderm cells after shRNA-mediated depletion of APLNR
Experimental: as §2
Briefly, Shef4 and HES3 hESCs were dissociated with Accutase, and 0.14 million cells were plated into each well of a Matrigel-coated 24 well plate in the presence of 5 μM Y-27632 in mTSER1. The media was changed daily for 4 days with mTSER1 until the cells became 90% confluent. On Day 0, mTSER1 was then replaced with differentiation media [RPMI 1640, B-27 supplement with no insulin (Invitrogen)] with 9 μM of GSK3β inhibitor CHIR99201 (BioVision) for 24 hours. The cells were further grown for 2 days in RPMI+B27 without insulin until Day 3, when they were used for qPCR, flow cytometry and AP-binding assays.

[4] = tested on: mesendodermal genes including GATA6, GATA4, FOXA2, EOMES and BRA; experiment: qPCR of mesendodermal markers in hESCs; type: cell-based, human
Experimental: After the indicated time periods, embryoid bodies were harvested and RNA extracted using RNeasy kit […]. qPCR reactions were carried out using either Universal FastStart SYBR Green Mastermix (Roche) or using the Universal Probe Library system (Roche) in tandem with Taqman Fast Mastermix (Invitrogen). Primer sequences can be found in Table E1.

hESCs [5] = experiment: Directed endoderm differentiation of hESCs (SOX17+ cell count); type: cell-based, human; conditions: immunofluorescence
Experimental: Shef4TetR5-shELA and Shef4TetR5-shβ2M cells were cultured in the presence (shELA and shβ2M respectively) or absence (Control) of 20 ng/ml doxycycline for 1 passage (4 days) and dissociated with Accutase. […] 24 hours later, the media was changed to Endo differentiation media 1 [RPMI 1640 (Gibco), 1X B-27 supplement (Invitrogen), 50 ng/ml of Activin A (R&D Systems), 25 ng/ml BMP4 (R&D Systems) and 50 ng/ml bFGF (Invitrogen)] for 3 days. On day 3, the media was changed to Endo differentiation media 2 (RPMI 1640, B27, 50 ng/ml Activin) for 2 more days of culture. Rescue experiments were performed by adding 2.5 uM of ELA peptide to Shef4TetR5-shELA concurrently with doxycycline up to day 3, when the ELA peptide is no longer necessary as judged by downregulation of endogenous ELA.
On day 5, cells were fixed with 4% paraformaldehyde and stained with α SOX17 (AF1924, R&D Systems) and DAPI. For each well, three different randomly selected fields were imaged and the number of nuclei staining positive of SOX17 and DAPI were counted using a custom macro in ImageJ. A minimum of two wells per condition was used for each experiment, and a minimum of two independent experiments were performed to generate the results.

[6] = tested on: pluripotency markers POU5F1, NANOG, SSEA3 and TRA-1-60; experiment: Pluripotency markers in ELA-depleted hESCs (immunofluorescence, qPCR); type: cell-based, human; conditions: prolonged ELA depletion in hESCs
Experimental: […]. Neomycin-resistant cells were clonally expanded and assayed for doxycycline (20 ng/ml)-inducible knockdown. Data from one representative clone (Shef4TetR5 shELA) are shown in this paper. Shef4TetR5 shβ2M were derived as previously described (Zafarana et al., 2009). Unless otherwise stated, ELA knockdown was induced on Day −4 with 20 ng/ml doxycycline to generate shELA cells.
Polyclonal antibodies were raised against a human N-terminal epitope (nh2-[…]) (SEQ ID NO: 53), C-terminal epitope ([…]-cooh) (SEQ ID NO: 52) or whole mature ELABELA peptide with an intramolecular cysteine bond (nh2-[…]-cooh) (SEQ ID NO: 2) and peptide-affinity purified from rabbit and goat sera. […] For western blotting and immunofluoresence assays, ELA antibodies were used at 1 μg/mL. All other antibodies are commercially available: TGN-46 (Serotec # AHP500GT); SSEA-3 (Stem Cell Tech #60061AD); TRA-1-60 (BD #560173); SOX17 (R&D # AF1924); POU5F1 (SCBT #sc-5279).

hESCs [7] = experiment: Teratoma analysis; type: in vivo; conditions: 10 million cells subcutaneously into SCID mice, day 60
Experimental: Shef4TetR5-shELA cells were cultured in the presence (shELA) or absence (Control) of 20 ng/ml doxycycline for 3 passages (4 days/passage). Cells were harvested with Accutase (Stemcell Technologies) and resuspended in 1 part Matrigel to 2 parts mTSER1. 10 million cells in 200 μl were injected subcutaneously into the right hind paunches of SCID mice. shELA-injected mice were fed doxycycline (20 μg/ml) for 3 weeks following injection. Mice were sacrificed 60 days post-injection for tumor analysis.

hESCs [8] = experiment: Cell cycle studies (EDU staining, double thymidine block); type: cell-based, human; conditions: release from double thymidine block
Experimental: as §1

hESCs [9] = experiment: Apoptosis assay (Annexin V, activated Caspase 3); type: cell-based, human
Experimental: Apoptosis assays were performed by plating control and Doxycycline-treated cells without Y-27632 onto matrigel for 6 hours, followed by harvesting and staining for Annexin V and activated Caspase 3.

`C[C@H]1CCC/C=C/[C@@H]2C[C@H](O)C[C@H]2[C@H](O)/C=C/C(=O)O1` [Brefeldin A] was tested, and the “ELA processing and secretion” value [1] was “able to block ELA processing and secretion; also recorded: blocks ELA processing”.

For “shAPLNR: lentiviral shRNA hairpins against APLNR (constructs shAPLNR-1 and shAPLNR-2) (guide 1 ACACGTACCGGGACTATGA; guide 2 CCATCATGCTGACCTGTTA)”, the “growth of knockdown hESCs (real-time cell index, xCELLigence)” value (hESCs [2]) was “not compromised; also recorded: do not show impaired growth”, the “cell surface APLNR levels” value (APLNR; Day 0 undifferentiated hESCs) was “No changes” and the “cell surface APLNR levels” value (APLNR; Day 3 mesoendoderm cells) was “significantly reduced cell surface APLNR levels”. For the same compound, the “levels of AP-ELA bound after APLNR depletion” value (undifferentiated hESCs) was “could not reduce binding of AP-ELA; also recorded: does not affect” and the “levels of AP-ELA bound after APLNR depletion” value [3] was “sufficient to significantly diminish the levels of AP-ELA; also recorded: significantly reduced AP-ELA binding”.

For “shELA: doxycycline-inducible shRNA, sequence GTGATTCTCGTGCCTCAAC targeting the 3′UTR of ELA, in Shef4TetR5 hESCs”, the “growth of hESCs by cell numbers” value (hESCs [2]; FIG. 3C, relative to untreated hESCs) was “reduced growth”, the “growth of hESCs relative to untreated cells” value (hESCs [2]; hESCs pulsed with peptide, documented by cell counts, colony size and real-time cell indices) was “reduced growth” and the colony size (hESCs [2]; knockdown hESC colonies versus control) was “less than half the size; also recorded: twice as small”. The “growth of knockdown hESCs (real-time cell index, xCELLigence)” value (hESCs [2]) was “markedly reduced growth rates; also recorded: significant growth impairment”, the “expression of mesendodermal markers” value [4] was “reduced levels; also recorded: conversely downregulated” and the “directed endoderm differentiation (SOX17 expression)” value (hESCs [5]) was “impaired endoderm differentiation; also recorded: markedly impaired”. For the same compound, the “pluripotency markers and colony morphology” value [6] was “downregulation of pluripotency markers; also recorded: lose expression of pluripotency markers; also recorded: gradually differentiate and lose pluripotency markers”, the “teratoma / tumor formation” value (hESCs [7]) was “did not form teratomas” and the cell cycle progression (hESCs [8]) was “not due to the activation of G1/S checkpoint or lengthened G0 residence; also recorded: do not display overt changes in cell cycle progression”. The apoptosis (hESCs [9]; FACs, ANNEXIN V and activated CASPASE 3, single cells) was “significantly higher rate; also recorded: rapid apoptosis” and the “increase in the number of ANNEXIN V and activated CASPASE 3-positive cells” value (hESCs [9]; compared to control hESCs) was “approximately 40%”.
